Reference: ChEMBL document CHEMBL3045618, “Effect of seven new orchard pesticides on Galendromus occidentalis in laboratory studies” (2009)

Tests used:
Format in all cases: functional
Galendromus occidentalis [1] = assay: Toxicity against Metaseiulus occidentalis adults in bean leaf disk infested with two-spotted spider mites assessed as corrected mortality at 0.1341 g AI/L treated using worst-case laboratory exposure procedure measured after 72 hr
Galendromus occidentalis [2] = assay: Toxicity against Metaseiulus occidentalis adults in bean leaf disk infested with two-spotted spider mites assessed as average number of eggs laid (fecundity) at 0.1341 g AI/L treated using worst-case laboratory exposure procedure measured after 72 hr (reference value: 2.23/day)
Galendromus occidentalis [3] = assay: Toxicity against Metaseiulus occidentalis adults in bean leaf disk infested with two-spotted spider mites assessed as repellency at 0.1341 g AI/L treated using worst-case laboratory exposure procedure measured after 24 hr (reference value: 3.6%)
Galendromus occidentalis [4] = assay: Toxicity against Metaseiulus occidentalis adults in bean leaf disk infested with two-spotted spider mites assessed as average number of eggs laid (fecundity) at 0.1341 g AI/L treated using worst-case laboratory exposure procedure measured after 24 hr (reference value: 2.11/day)
Galendromus occidentalis [5] = assay: Toxicity against Metaseiulus occidentalis adults in bean leaf disk infested with two-spotted spider mites assessed as corrected mortality at 2x0.1341 g AI/L treated using worst-case laboratory exposure procedure measured after 72 hr
Galendromus occidentalis [6] = assay: Ovicidal activity against Metaseiulus occidentalis eggs in bean leaf disk infested with two-spotted spider mites assessed as corrected cumulative mortality at 442 g/L SC formulation treated using worst-case laboratory exposure procedure measured after 144 hr (reference value: 0.7%)
Galendromus occidentalis [7] = assay: Toxicity against Metaseiulus occidentalis adults in bean leaf disk infested with two-spotted spider mites assessed as average number of eggs laid (fecundity) at 0.1341 g AI/L treated using worst-case laboratory exposure procedure measured after 48 hr (reference value: 2.30/day)
Galendromus occidentalis [8] = assay: Toxicity against Metaseiulus occidentalis adults in bean leaf disk infested with two-spotted spider mites assessed as corrected mortality at 4x0.1341 g AI/L treated using worst-case laboratory exposure procedure measured after 72 hr
Galendromus occidentalis [9] = assay: Toxicity against Metaseiulus occidentalis adults in bean leaf disk infested with two-spotted spider mites assessed as repellency at 0.1341 g AI/L treated using worst-case laboratory exposure procedure measured after 48 hr (reference value: 13.6%)
Galendromus occidentalis [10] = assay: Toxicity against Metaseiulus occidentalis adults in bean leaf disk infested with two-spotted spider mites assessed as repellency at 0.1341 g AI/L treated using worst-case laboratory exposure procedure measured after 72 hr (reference value: 16.1%)

CC[C@H]1CCC[C@H](O[C@H]2CC[C@H](N(C)C)[C@@H](C)O2)[C@@H](C)C(=O)C2=C[C@@H]3[C@@H](C=C(C)[C@@H]4C[C@@H](O[C@@H]5O[C@@H](C)[C@H](OC)[C@@H](OC)[C@H]5OC)C[C@@H]34)[C@@H]2CC(=O)O1.CC[C@H]1CCC[C@H](O[C@H]2CC[C@H](N(C)C)[C@@H](C)O2)[C@@H](C)C(=O)C2=C[C@@H]3[C@@H](C=C[C@@H]4C[C@@H](O[C@@H]5O[C@@H](C)[C@H](OC)[C@@H](OC)[C@H]5OC)C[C@@H]34)[C@@H]2CC(=O)O1
mortality (Galendromus occidentalis [1]): 0.4% | Activity (Galendromus occidentalis [2]): 2.28 day⁻¹ | Repellency (Galendromus occidentalis [3]): 10.9% | Activity (Galendromus occidentalis [4]): 1.57 day⁻¹ | mortality (Galendromus occidentalis [5]): 0% | mortality at 442000 µg/mL (stock) (Galendromus occidentalis [6]): 6.6% | Activity (Galendromus occidentalis [7]): 1.59 day⁻¹ | mortality (Galendromus occidentalis [8]): 0% | Repellency (Galendromus occidentalis [9]): 24.4% | Repellency (Galendromus occidentalis [10]): 28.8%
